Experimental data reported in publication PMC4433244, “Interaction of cCMP with the cGK, cAK and MAPK Kinases in Murine Tissues” (PLoS ONE, 2015).

Legend:
[1] = target: T1, cGKI (Mus musculus, UniProt P0C605)
T1 construct: gene Prkg1

[2] = target: T2, cAKRIα (Mus musculus, UniProt Q9DBC7); test: 4-AH-cCMP agarose affinity chromatography competed by free cCMP; mass spectrometry and immunoblot (cAKRIα/β antibody); format: cell-based
T2 construct: gene Prkar1a; endogenous regulatory subunit in lung tissue lysate

[3] = target: T3, cGKII (Mus musculus, UniProt Q61410); test: (γ-32P) ATP kinase assay with IRAGtide, activation of purified enzyme; format: biochemical
T3 construct: gene Prkg2; recombinant murine cGKII expressed in SF9 cells
T3 sequence (Q61410 2-762): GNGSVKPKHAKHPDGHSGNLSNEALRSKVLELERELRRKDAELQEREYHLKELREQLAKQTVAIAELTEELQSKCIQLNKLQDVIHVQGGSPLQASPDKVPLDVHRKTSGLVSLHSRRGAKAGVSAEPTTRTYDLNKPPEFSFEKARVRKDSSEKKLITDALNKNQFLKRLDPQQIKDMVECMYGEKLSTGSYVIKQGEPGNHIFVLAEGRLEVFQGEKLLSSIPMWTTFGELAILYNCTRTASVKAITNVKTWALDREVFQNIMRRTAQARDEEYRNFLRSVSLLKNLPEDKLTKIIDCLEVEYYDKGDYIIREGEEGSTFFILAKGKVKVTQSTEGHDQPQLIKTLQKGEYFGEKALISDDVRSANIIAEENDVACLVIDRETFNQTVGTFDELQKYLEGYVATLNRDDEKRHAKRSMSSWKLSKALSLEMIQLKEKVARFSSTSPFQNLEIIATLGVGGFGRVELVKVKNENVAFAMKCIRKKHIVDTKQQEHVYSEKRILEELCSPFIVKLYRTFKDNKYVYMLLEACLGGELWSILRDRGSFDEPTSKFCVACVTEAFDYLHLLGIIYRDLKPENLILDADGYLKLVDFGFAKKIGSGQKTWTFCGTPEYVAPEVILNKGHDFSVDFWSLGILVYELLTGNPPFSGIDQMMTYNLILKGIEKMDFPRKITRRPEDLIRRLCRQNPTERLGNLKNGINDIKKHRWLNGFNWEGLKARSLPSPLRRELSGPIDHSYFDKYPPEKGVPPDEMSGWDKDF

T1 sequence (P0C605 2-671): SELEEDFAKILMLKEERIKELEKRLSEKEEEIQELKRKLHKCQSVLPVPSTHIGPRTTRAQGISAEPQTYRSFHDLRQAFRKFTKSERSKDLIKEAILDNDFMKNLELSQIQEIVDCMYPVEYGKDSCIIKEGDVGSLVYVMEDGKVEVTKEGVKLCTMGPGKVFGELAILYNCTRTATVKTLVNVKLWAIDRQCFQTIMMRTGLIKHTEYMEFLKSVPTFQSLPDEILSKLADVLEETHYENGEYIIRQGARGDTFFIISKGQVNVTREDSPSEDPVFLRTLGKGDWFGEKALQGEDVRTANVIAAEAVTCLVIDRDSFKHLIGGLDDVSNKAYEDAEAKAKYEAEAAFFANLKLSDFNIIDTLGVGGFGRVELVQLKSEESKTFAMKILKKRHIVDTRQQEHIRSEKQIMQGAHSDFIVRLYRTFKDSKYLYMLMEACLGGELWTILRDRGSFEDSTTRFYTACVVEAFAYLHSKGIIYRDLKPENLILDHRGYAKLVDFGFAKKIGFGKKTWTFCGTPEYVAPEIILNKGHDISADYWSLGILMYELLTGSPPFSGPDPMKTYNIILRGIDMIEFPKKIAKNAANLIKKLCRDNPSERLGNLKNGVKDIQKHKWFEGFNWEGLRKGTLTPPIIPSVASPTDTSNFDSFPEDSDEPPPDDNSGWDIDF
T2 sequence (Q9DBC7 2-381): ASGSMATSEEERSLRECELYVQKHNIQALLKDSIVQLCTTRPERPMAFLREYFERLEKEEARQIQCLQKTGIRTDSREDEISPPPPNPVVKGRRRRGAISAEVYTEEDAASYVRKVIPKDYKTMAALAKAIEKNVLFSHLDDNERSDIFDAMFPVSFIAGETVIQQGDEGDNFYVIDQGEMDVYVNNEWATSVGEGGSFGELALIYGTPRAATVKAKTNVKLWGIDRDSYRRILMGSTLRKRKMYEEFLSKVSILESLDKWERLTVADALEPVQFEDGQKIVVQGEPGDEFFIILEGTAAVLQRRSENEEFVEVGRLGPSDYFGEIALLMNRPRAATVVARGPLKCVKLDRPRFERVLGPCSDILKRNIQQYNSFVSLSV

Nc1nc2c(ncn2[C@@H]2O[C@@H]3COP(=O)(O)O[C@H]3[C@H]2O)c(=O)[nH]1 [cGMP]
EC50 [1]: 2 ± 0.5 µM

Nc1ccn([C@@H]2O[C@@H]3COP(=O)(O)O[C@H]3[C@H]2O)c(=O)n1 [cCMP]
4-AH-cCMP agarose affinity chromatography competed by free cCMP; mass spectromet [2]: Specific binding of cCMP to cAKRIα/β was also detected. | EC50 [3]: 110 ± 8 µM
